Converted amounts (≈) assume the structure as drawn. Read-outs that look alike come from different tables or passages of the source.
Key:
K. pneumoniae ATCC 51503 = assay: Broth dilution MIC, K. pneumoniae ATCC 51503; type: cell-based; details: Klebsiella pneumoniae
MRSA = assay: Disk diffusion assay, zone of inhibition, MRSA; type: cell-based, Staphylococcus aureus; details: disk diffusion zone of inhibition
E. coli ECM 1694 = assay: Broth dilution MIC, E. coli ECM 1694; type: cell-based; details: Escherichia coli
E. faecium CT-26 = assay: Broth dilution MIC, E. faecium CT-26; type: cell-based; details: Enterococcus faecium
M. smegmatis (mc2155) = assay: Disk diffusion assay, zone of inhibition, M. smegmatis; type: cell-based; details: disk diffusion zone of inhibition
[1] = system: S. pneumoniae ATCC 700674 (PRSP); assay: Broth dilution MIC, S. pneumoniae ATCC 700674; type: cell-based; details: Streptococcus pneumoniae
[2] = system: S. aureus ATCC 29213 (MSSA); assay: Broth dilution MIC, S. aureus ATCC 29213; type: cell-based; details: Staphylococcus aureus
S. aureus BAA-39 (MDR) = assay: Broth dilution MIC, S. aureus BAA-39; type: cell-based; details: Staphylococcus aureus, BAA39
[3] = system: S. aureus ATCC 33591 (MRSA); assay: Broth dilution MIC, S. aureus ATCC 33591; type: cell-based; details: Staphylococcus aureus
K. pneumoniae ATCC 13883 = assay: Broth dilution MIC, K. pneumoniae ATCC 13883; type: cell-based; details: Klebsiella pneumoniae
E. coli ATCC 25922 = assay: Broth dilution MIC, E. coli ATCC 25922; type: cell-based; details: Escherichia coli
P. aeruginosa ATCC 9027 = assay: Broth dilution MIC, P. aeruginosa ATCC 9027; type: cell-based; details: Pseudomonas aeruginosa
[4] = system: E. faecalis ATCC 29212 (VRE); assay: Broth dilution MIC, E. faecalis ATCC 29212; type: cell-based
C. albicans ATCC 14053 = assay: Broth dilution MIC, C. albicans ATCC 14053; type: cell-based; details: Candida albicans, ATCC14053; Table 1; range 64 down to 0.12 μg/ml
Protocol: In vitro Anti-bacterial & Anti-fungal Activity Assay: All test compounds were prepared as 6.4 mg/ml stock solutions in DMSO and further diluted according to the NCCLS M7-A6 (Page 5) document with sterile water or appropriate diluent. A working stock of 256 μg/ml was used to do 1:2 serial dilutions in 96-well plates. […] The inoculums were prepared by making a direct sterile water suspension of isolated colonies from 18 to 24 hr agar plates for all organisms (Mueller Hinton, Blood Agar or SDA plates). Each bacterial suspension was adjusted to read between 0.09 and 0.11 absorbance at 620 nm. […] These were further diluted 1/100 in appropriate broth for inoculating the 96-well plates. The C. albicans suspension was adjusted to read between 70 and 75% Transmittance at 530 nm and then diluted 1/500 in RPMI+MOPS broth. All aerobic bacterial and fungal plates were incubated for 18 hrs. at 35° C. […] Plates were read using a Beckman Automated Plate Reader at 650 nm. Readings were confirmed by visual examination of plates. (See Table 1, Table 2, Table 3, and Table 4). […] It is important to note that positive results against C. albicans are often indicative of broad spectrum antifungal activity, while negative results are not necessarily conclusory of a lack of activity against other fungus.

[5] = system: E. faecium ATCC 700221 (VRE); assay: Broth dilution MIC, E. faecium ATCC 700221; type: cell-based
[6] = system: S. pneumoniae ATCC 6301 (PSSP); assay: Broth dilution MIC, S. pneumoniae ATCC 6301; type: cell-based; details: Streptococcus pneumoniae
[7] = ATCC51503, Table 1, range 64 down to 0.12 μg/ml, read-out: MIC K. pneumoniae ATCC 51503
[8] = ATCC51503, Table 2, broth dilution MIC in ug/ml, read-out: MIC K pneumonia ATCC 51503
[9] = ECM1694, Table 1, range 64 down to 0.12 μg/ml, read-out: MIC E. coli ECM 1694
[10] = ECM1694, Table 2, broth dilution MIC in ug/ml, read-out: MIC E. coli ECM 1693
[11] = CT26, Table 1, range 64 down to 0.12 μg/ml, read-out: MIC E. faecium CT-26
[12] = CT26, Table 2, broth dilution MIC in ug/ml, read-out: MIC E faecium CT-25
[13] = Table 1, range 64 down to 0.12 μg/ml, read-out: MIC S. pneumoniae ATCC 700674
[14] = Table 2, broth dilution MIC in ug/ml, read-out: MIC S pneumonia ATCC 700674 PRSP
[15] = Table 1, range 64 down to 0.12 μg/ml, read-out: MIC S. aureus ATCC 29213
[16] = Table 2, broth dilution MIC in ug/ml, read-out: MIC S aureus ATCC 29213 MSSA
[17] = Table 1, range 64 down to 0.12 μg/ml, read-out: MIC S. aureus BAA-39
[18] = Table 2, broth dilution MIC in ug/ml, read-out: MIC S aureus BAA-39 MDR
[19] = Table 1, range 64 down to 0.12 μg/ml, read-out: MIC S. aureus ATCC 33591
[20] = Table 2, broth dilution MIC in ug/ml, read-out: MIC S aureus ATCC 33591 MRSA
[21] = ATCC13883, Table 1, range 64 down to 0.12 μg/ml, read-out: MIC K. pneumoniae ATCC 13883
[22] = ATCC13883, Table 2, broth dilution MIC in ug/ml, read-out: MIC K pneumonia ATCC 13883
[23] = ATCC 25921 / ATCC 25922, Table 2, broth dilution MIC in ug/ml, read-out: MIC E. coli ATCC 25921
[24] = ATCC25922, Table 1, range 64 down to 0.12 μg/ml, read-out: MIC E. coli ATCC 25922
[25] = ATCC 9026 / ATCC 9027, Table 2, broth dilution MIC in ug/ml, read-out: MIC P aeruginosa ATCC 9026
[26] = ATCC9027, Table 1, range 64 down to 0.12 μg/ml, read-out: MIC P. aeruginosa ATCC 9027
[27] = Enterococcus faecalis, Table 1, range 64 down to 0.12 μg/ml, read-out: MIC E. faecalis ATCC 29212
[28] = Table 2, broth dilution MIC in ug/ml, read-out: MIC E faecalis ATCC 29212 VRE
[29] = Enterococcus faecium, Table 1, range 64 down to 0.12 μg/ml, read-out: MIC E. faecium ATCC 700221
[30] = Table 2, broth dilution MIC in ug/ml, read-out: MIC E faecium ATCC 700221 VRE
[31] = ATCC6301, Table 1, range 64 down to 0.12 μg/ml, read-out: MIC S. pneumoniae ATCC 6301
[32] = ATCC6301, Table 2, broth dilution MIC in ug/ml, read-out: MIC S pneumonia ATCC 6301 PSSP

**Q.** Which MIC (K. pneumoniae ATCC 51503; [7]) does the source give for `CN1CCC(Nc2ccc(-c3cc4ccc(C5=NCCN5)cc4[nH]3)cc2)CC1` [SKI-7] here?
**A.** > 64 µg/mL

**Q.** And the MIC (K. pneumoniae ATCC 51503; [8])?
**A.** 64 µg/mL (≈ 171 µM)

**Q.** And the “Zone Size MRSA” value (MRSA)?
**A.** 19 mm

**Q.** And the MIC (E. coli ECM 1694; [9])?
**A.** 0.25 µg/mL (≈ 0.669 µM)

**Q.** And the MIC (E. coli ECM 1694; [10])?
**A.** 0.25 µg/mL (≈ 0.669 µM)

**Q.** And the MIC (E. faecium CT-26; [11])?
**A.** 16 µg/mL (≈ 42.8 µM)

**Q.** And the MIC (E. faecium CT-26; [12])?
**A.** 16 µg/mL (≈ 42.8 µM)

**Q.** What about the “Zone Size M. smegmatis” value (M. smegmatis (mc2155)) of the same compound?
**A.** 30 mm

**Q.** And the MIC [1, 13]?
**A.** 32 µg/mL (≈ 85.7 µM)

**Q.** And the MIC [1, 14]?
**A.** 32 µg/mL (≈ 85.7 µM)

**Q.** What about the MIC [2, 15] of the same compound?
**A.** 2 µg/mL (≈ 5.35 µM)

**Q.** And the MIC [2, 16]?
**A.** 2 µg/mL (≈ 5.35 µM)

**Q.** What about the MIC (S. aureus BAA-39 (MDR); [17]) of the same compound?
**A.** 2 µg/mL (≈ 5.35 µM)

**Q.** What about the MIC (S. aureus BAA-39 (MDR); [18]) of the same compound?
**A.** 2 µg/mL (≈ 5.35 µM)

**Q.** And the MIC [3, 19]?
**A.** 2 µg/mL (≈ 5.35 µM)

**Q.** What about the MIC [3, 20] of the same compound?
**A.** 2 µg/mL (≈ 5.35 µM)

**Q.** And the MIC (K. pneumoniae ATCC 13883; [21])?
**A.** > 64 µg/mL

**Q.** And the MIC (K. pneumoniae ATCC 13883; [22])?
**A.** 64 µg/mL (≈ 171 µM)

**Q.** What about the MIC (E. coli ATCC 25922; [23]) of the same compound?
**A.** 2 µg/mL (≈ 5.35 µM)

**Q.** What about the MIC (E. coli ATCC 25922; [24]) of the same compound?
**A.** 2 µg/mL (≈ 5.35 µM)

**Q.** What about the MIC (P. aeruginosa ATCC 9027; [25]) of the same compound?
**A.** 64 µg/mL (≈ 171 µM)

**Q.** What about the MIC (P. aeruginosa ATCC 9027; [26]) of the same compound?
**A.** > 64 µg/mL

**Q.** And the MIC [4, 27]?
**A.** 16 µg/mL (≈ 42.8 µM)

**Q.** What about the MIC [4, 28] of the same compound?
**A.** 16 µg/mL (≈ 42.8 µM)

**Q.** What about the MIC (C. albicans ATCC 14053) of the same compound?
**A.** 32 µg/mL (≈ 85.7 µM)

**Q.** What about the MIC [5, 29] of the same compound?
**A.** 16 µg/mL (≈ 42.8 µM)

**Q.** What about the MIC [5, 30] of the same compound?
**A.** 16 µg/mL (≈ 42.8 µM)

**Q.** And the MIC [6, 31]?
**A.** 4 µg/mL (≈ 10.7 µM)

**Q.** What about the MIC [6, 32] of the same compound?
**A.** 4 µg/mL (≈ 10.7 µM)

**Q.** Which results are given for `c1cc(-c2cc3ccc(C4=NCCN4)cc3[nH]2)ccc1Nc1ccc(N2CCOCC2)cc1` [SKI-11]?
**A.** MIC (K. pneumoniae ATCC 51503; [7]): > 64 µg/mL; MIC (K. pneumoniae ATCC 51503; [8]): 64 µg/mL (≈ 146 µM); Zone Size MRSA (MRSA): 11 mm; MIC (E. coli ECM 1694; [9]): 1 µg/mL (≈ 2.29 µM); MIC (E. coli ECM 1694; [10]): 1 µg/mL (≈ 2.29 µM); MIC (E. faecium CT-26; [11]): 1 µg/mL (≈ 2.29 µM); MIC (E. faecium CT-26; [12]): 1 µg/mL (≈ 2.29 µM); Zone Size M. smegmatis (M. smegmatis (mc2155)): 11 mm; MIC [1, 13]: 16 µg/mL (≈ 36.6 µM); MIC [1, 14]: 16 µg/mL (≈ 36.6 µM); MIC [2, 15]: 8 µg/mL (≈ 18.3 µM); MIC [2, 16]: 8 µg/mL (≈ 18.3 µM); MIC (S. aureus BAA-39 (MDR); [17]): 4 µg/mL (≈ 9.14 µM); MIC (S. aureus BAA-39 (MDR); [18]): 4 µg/mL (≈ 9.14 µM); MIC [3, 19]: 4 µg/mL (≈ 9.14 µM); MIC [3, 20]: 4 µg/mL (≈ 9.14 µM); MIC (K. pneumoniae ATCC 13883; [21]): > 64 µg/mL; MIC (K. pneumoniae ATCC 13883; [22]): 64 µg/mL (≈ 146 µM); MIC (E. coli ATCC 25922; [23]): 16 µg/mL (≈ 36.6 µM); MIC (E. coli ATCC 25922; [24]): 16 µg/mL (≈ 36.6 µM); MIC (P. aeruginosa ATCC 9027; [25]): 64 µg/mL (≈ 146 µM); MIC (P. aeruginosa ATCC 9027; [26]): > 64 µg/mL; MIC [4, 27]: 4 µg/mL (≈ 9.14 µM); MIC [4, 28]: 4 µg/mL (≈ 9.14 µM); MIC (C. albicans ATCC 14053): 32 µg/mL (≈ 73.1 µM); MIC [5, 29]: 1 µg/mL (≈ 2.29 µM); MIC [5, 30]: 1 µg/mL (≈ 2.29 µM); MIC [6, 31]: 4 µg/mL (≈ 9.14 µM); MIC [6, 32]: 4 µg/mL (≈ 9.14 µM)
